In ChEMBL document CHEMBL5634178, “Precursor-Directed Biosynthesis of Neoantimycin Derivatives with Selective Cytotoxicity” (J Nat Prod, 2024) one finds IC50 data, which are given here for ten molecules.

In one data set the test system is HT-29. The experiment in a line: Cytotoxicity against wild type human HT-29 cells assessed as reduction in cell viability incubated for 72 hrs by CCK-8 assay. It is filed as functional, cell-based. Conditions: HT-29, 72 h. In general terms: Tetrazolium assays rely on reduction of a dye to a coloured formazan, in cell work by metabolically active cells.
Another data set concerns NCI-H1299. The experiment in a line: Cytotoxicity against human NCI-H1299 cells expressing N-ras mutant assessed as reduction in cell viability incubated for 72 hrs by CCK-8 assay. The following applies: NCI-H1299, 72 h. It is filed as functional, cell-based.
The test system of another data set is DLD-1. Nature of the data set: Cytotoxicity against human DLD-1 cells expressing K-Ras G13D mutant assessed as reduction in cell viability incubated for 72 hrs by CCK-8 assay. The class given is functional, cell-based. The following applies: DLD-1, 72 h.
The test system of the next data set is SW-620. The experiment in a line: Cytotoxicity against human SW620 cells expressing K-Ras G12V mutant assessed as reduction in cell viability incubated for 72 hrs by CCK-8 assay. It is filed as functional, cell-based. The following applies: SW-620, 72 h.
Another data set relates to NCI-H460. Nature of the data set: Cytotoxicity against human NCI-H460 cells expressing K-Ras Q61H mutant assessed as reduction in cell viability incubated for 72 hrs by CCK-8 assay. It is filed as functional, cell-based. Conditions: NCI-H460, 72 h.
For another data set, the system named is A549. The experiment in a line: Cytotoxicity against human A549 cells expressing K-Ras […] mutant assessed as reduction in cell viability incubated for 72 hrs by CCK-8 assay. It is filed as functional, cell-based. The following applies: A549, 72 h.
The nature of data set [1]: Cytotoxicity against human NCM460 cells assessed as reduction in cell viability incubated for 72 hrs by CCK-8 assay. The class given is toxicity, cell-based.

The term IC50 denotes the concentration that inhibits the measured activity by half.

Regarding `CC[C@H](C)[C@@H]1OC(=O)C(C)(C)C(=O)[C@H](Cc2ccccc2)OC(=O)[C@H](C(C)C)OC(=O)[C@@H](NC(=O)c2ccccc2)[C@@H](C)OC1=O`, the IC50 with HT-29 was more than 20 µM; in the data set with NCI-H1299, more than 20 µM; with DLD-1, 1.9 µM; with SW-620 it was 0.36 µM; with NCI-H460, more than 20 µM; with A549, more than 20 µM. Further, the IC50 at 72 h in data set [1] was more than 20 µM.
As for `CC[C@H](C)[C@@H]1OC(=O)C(C)(C)C(=O)[C@H](Cc2ccccc2)OC(=O)[C@H](C(C)C)OC(=O)[C@@H](NC(=O)c2cccc(F)c2)[C@@H](C)OC1=O`, the IC50 is more than 20 µM in the data set with HT-29; more than 20 µM in the data set with NCI-H1299; 3.5 µM with DLD-1; 1.1 µM with SW-620; more than 20 µM in the data set with NCI-H460; more than 20 µM in the data set on A549. Further, in data set [1], the IC50 at 72 h was more than 20 µM.
Consider `CC[C@H](C)[C@@H]1OC(=O)C(C)(C)C(=O)[C@@H](Cc2ccccc2)OC(=O)[C@H](C(C)C)OC(=O)[C@@H](NC(=O)c2cccc(F)c2)[C@@H](C)OC1=O`, for which the IC50 is more than 20 µM in the data set with HT-29; more than 20 µM with NCI-H1299; 2.7 µM with DLD-1; 0.33 µM with SW-620; 8.8 µM with NCI-H460; 11.2 µM with A549. In addition, in data set [1], the IC50 at 72 h is more than 20 µM.
Consider `CC[C@H](C)[C@@H]1OC(=O)C(C)(C)C(=O)[C@@H](Cc2ccccc2)OC(=O)[C@H](C(C)C)OC(=O)[C@@H](NC(=O)c2cccc(O)c2)[C@@H](C)OC1=O`, for which the IC50 in the data set with HT-29 was more than 20 µM; in the data set on NCI-H1299, more than 20 µM; with DLD-1, more than 20 µM; in the data set on SW-620, 1.9 µM; with NCI-H460, more than 20 µM; with A549, 10.1 µM. Besides, the IC50 at 72 h in data set [1] was more than 20 µM.
Take `CC[C@H](C)[C@@H]1OC(=O)C(C)(C)C(=O)[C@@H](Cc2ccccc2)OC(=O)[C@H](C(C)C)OC(=O)[C@@H](NC(=O)c2ccccc2)[C@@H](C)OC1=O`: the IC50 in the data set on HT-29 is more than 20 µM; in the data set on NCI-H1299, 4.5 µM; with DLD-1, 0.07 µM; in the data set with SW-620 it was 0.04 µM; with NCI-H460 it was 1.6 µM; in the data set on A549, 0.33 µM. Besides, in data set [1], the IC50 at 72 h was more than 20 µM.
Take `CC[C@H](C)[C@@H]1OC(=O)C(C)(C)C(=O)[C@@H](Cc2ccccc2)OC(=O)[C@H](C(C)C)OC(=O)[C@@H](NC(=O)c2ccccc2O)[C@@H](C)OC1=O`: the IC50 in the data set with HT-29 is more than 20 µM; with NCI-H1299, more than 20 µM; in the data set on DLD-1 it was 2.8 µM; with SW-620, 0.33 µM; with NCI-H460 it was 4.4 µM; in the data set with A549 it was 9.7 µM. Besides, in data set [1], the IC50 at 72 h was 6.6 µM.
For the molecule `CC[C@H](C)[C@@H]1OC(=O)C(C)(C)C(=O)[C@@H](Cc2ccccc2)OC(=O)[C@H](C(C)C)OC(=O)[C@@H](NC(=O)c2ccccc2F)[C@@H](C)OC1=O`, the concentration for half-maximal inhibition (IC50) is more than 20 µM with HT-29; 3.3 µM in the data set with NCI-H1299; 0.6 µM in the data set on DLD-1; 0.14 µM in the data set with SW-620; 1.3 µM with NCI-H460; 4.3 µM in the data set on A549. The IC50 at 72 h in data set [1] was more than 20 µM.
Take `CC[C@H](C)[C@@H]1OC(=O)C(C)(C)[C@@H](O)[C@@H](Cc2ccccc2)OC(=O)[C@H](C(C)C)OC(=O)[C@@H](NC(=O)c2cccc(NC=O)c2O)[C@@H](C)OC1=O`: the IC50 was found to be 0.0006 µM with HT-29; 0.0105 µM in the data set on NCI-H1299; 0.059 µM with DLD-1; 0.0038 µM with SW-620; 0.316 µM with NCI-H460; 4e-05 µM in the data set on A549. Also, the IC50 at 72 h in data set [1] was 0.00024 µM.
On to `CC[C@H](C)[C@@H]1OC(=O)C(C)(C)C(=O)[C@H](Cc2ccccc2)OC(=O)[C@H](C(C)C)OC(=O)[C@@H](NC(=O)c2ccccc2F)[C@@H](C)OC1=O`, for which the IC50 was 9.4 µM with HT-29; more than 20 µM in the data set with NCI-H1299; 2.6 µM in the data set on DLD-1; 0.56 µM in the data set on SW-620; more than 20 µM with NCI-H460; more than 20 µM in the data set on A549. For the same molecule, the IC50 at 72 h in data set [1] is more than 20 µM.
Turning to `CC[C@H](C)[C@@H]1OC(=O)C(C)(C)C(=O)[C@H](Cc2ccccc2)OC(=O)[C@H](C(C)C)OC(=O)[C@@H](NC(=O)c2cccc(O)c2)[C@@H](C)OC1=O`, the IC50 in the data set with HT-29 is more than 20 µM; with NCI-H1299, 3.1 µM; in the data set on DLD-1, more than 20 µM; in the data set with SW-620, 1.3 µM; in the data set on NCI-H460, 17.9 µM; in the data set with A549, more than 20 µM. Further, the IC50 at 72 h in data set [1] was more than 20 µM.
